Source: US9833454B2, “Difluoromethoxy compound with low bioactivation potential for the reduction of beta-amyloid production” (BRISTOL-MYERS SQUIBB COMPANY, priority 2014, dated 2017)
pIC50: −log10 of the molar value. Several values for one entry are separate records, joined by “and”; a condition that tells them apart may be missing. Identical values can stand only once. Like-named read-outs stand apart in the source and are kept apart here.

How the values were obtained:
CYP2B6 = target: T1, CYP2B6 (Homo sapiens, UniProt P20813); experiment: Inhibition of CYP enzymes in human liver microsomes (HLM), CYP2B6; assay type: in vitro ADME
T1 sequence (P20813 1-491): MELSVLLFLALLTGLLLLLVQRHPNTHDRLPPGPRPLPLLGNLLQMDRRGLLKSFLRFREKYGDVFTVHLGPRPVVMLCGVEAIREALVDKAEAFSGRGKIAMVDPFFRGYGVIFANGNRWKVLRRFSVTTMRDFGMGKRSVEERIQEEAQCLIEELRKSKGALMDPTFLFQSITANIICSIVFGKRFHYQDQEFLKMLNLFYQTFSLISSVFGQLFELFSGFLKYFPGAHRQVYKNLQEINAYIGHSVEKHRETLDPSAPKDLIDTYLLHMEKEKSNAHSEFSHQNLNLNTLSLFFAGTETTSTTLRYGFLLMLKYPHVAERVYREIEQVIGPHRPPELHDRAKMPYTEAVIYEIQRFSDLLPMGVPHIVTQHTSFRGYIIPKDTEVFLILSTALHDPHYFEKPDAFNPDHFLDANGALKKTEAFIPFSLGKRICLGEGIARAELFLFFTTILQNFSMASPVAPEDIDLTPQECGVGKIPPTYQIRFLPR

dopamine receptor 1 = dopamine receptor 1 (Homo sapiens, UniProt P21728); experiment: In vitro safety: off-target receptor binding and enzyme assays, D1; conditions: in vitro safety panel
dopamine receptor 1, sequence (P21728 whole entry): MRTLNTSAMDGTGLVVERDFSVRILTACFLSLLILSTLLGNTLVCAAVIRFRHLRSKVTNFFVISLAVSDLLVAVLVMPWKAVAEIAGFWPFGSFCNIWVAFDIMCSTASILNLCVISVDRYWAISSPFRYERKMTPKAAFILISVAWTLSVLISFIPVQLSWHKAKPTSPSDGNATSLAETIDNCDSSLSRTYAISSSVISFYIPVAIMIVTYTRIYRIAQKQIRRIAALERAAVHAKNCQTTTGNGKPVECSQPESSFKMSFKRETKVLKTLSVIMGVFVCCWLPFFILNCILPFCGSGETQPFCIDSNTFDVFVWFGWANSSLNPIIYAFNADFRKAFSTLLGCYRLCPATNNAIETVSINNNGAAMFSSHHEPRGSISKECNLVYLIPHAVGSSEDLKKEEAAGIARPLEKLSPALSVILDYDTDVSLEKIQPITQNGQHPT
Experimental: A range of off-target receptor binding assays and enzyme assays were carried out using conventional methods available in the art.

[1] = In vitro metabolite elucidation in Aroclor-treated rat liver S9 (with NADPH and GSH); assay type: in vitro ADME
Experimental: The incubation mixtures (0.5 mL) contained N2-(3-(DIFLUOROMETHOXY)-4-(3-METHYL-1H-1,2,4-TRIAZOL-1-YL)PHENYL)-7-(4-FLUOROPHENYL)-N4,5,5-[…]-6,7-DIHYDRO-5H-CYCLOPENTA[D]PYRIMIDINE-2,4-DIAMINE (10 μM), liver S9 fractions from Aroclor 1254-treated rats (Molecular Toxicology, Boone, N.C.) (2 mg protein/mL), and glutathione (GSH, 5 mM) in a 100 mM potassium phosphate buffer (pH 7.4). The final concentration of acetonitrile in the S9 fraction incubations was 0.5% (v/v). The reactions were initiated by adding β-nicotinamide adenine dinucleotide 2′-phosphate reduced tetrasodium salt (NADPH, final concentration as 1 mM) and the incubations were carried out at 37° C. […] The filtrate was collected in a 96-well plate and evaporated to approximately 25% of the original volume under nitrogen gas, and the remaining aqueous phase was analyzed using high-performance liquid chromatography with ultraviolet (UV) spectroscopic and mass spectrometric detection (LC-UV/MS) under the conditions described in Section 1.2.
Bioanalytical methods were as follows: The LC-UV/MS system consisted of a Waters Acquity binary solvent manager, a sample manager, a photodiode array (PDA) detector, and a Xevo Q-TOF mass spectrometer (Waters Corporation, Milford, Mass.). […] Column effluent was analyzed in-line using a PDA detector followed by the mass spectrometer. […]

CYP3A4 = CYP3A4 (Homo sapiens, UniProt P08684); experiment: biochemical
CYP3A4, sequence (P08684 whole entry): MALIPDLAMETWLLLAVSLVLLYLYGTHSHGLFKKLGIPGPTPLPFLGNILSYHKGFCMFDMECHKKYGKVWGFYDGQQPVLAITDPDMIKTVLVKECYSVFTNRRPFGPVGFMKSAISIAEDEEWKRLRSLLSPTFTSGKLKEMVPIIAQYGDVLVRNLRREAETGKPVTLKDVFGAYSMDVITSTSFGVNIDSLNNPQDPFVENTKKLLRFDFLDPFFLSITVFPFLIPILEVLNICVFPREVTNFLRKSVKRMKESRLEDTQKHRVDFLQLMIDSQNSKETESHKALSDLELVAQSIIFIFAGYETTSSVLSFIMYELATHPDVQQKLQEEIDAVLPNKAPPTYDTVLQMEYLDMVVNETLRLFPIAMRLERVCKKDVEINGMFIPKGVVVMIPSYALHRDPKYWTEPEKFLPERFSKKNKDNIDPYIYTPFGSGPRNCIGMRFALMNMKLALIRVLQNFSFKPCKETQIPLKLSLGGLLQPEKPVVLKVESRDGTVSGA

pIC50 (CYP2B6; 0 min preincubation, read-out: IC50-0 min 2B6): < 4.40 | IC50 Ratio 2B6 (CYP2B6; IC50 shift 0 vs 30 min preincubation (TDI ratio)): 1.0 | pIC50 (CYP2B6; read-out: IC50-30 min 2B6, 30 min preincubation with NADPH): < 4.40 | Estimated Percent (%) of The Original Parent Level (P) Based on UV Peak Areas ([1]; 10 μM, 30-minute incubation with NADPH and GSH, UV 300 nm): 76% | GSH Adducts ([1]; NADPH and GSH): No GSH conjugates were detected | pIC50 (CYP3A4): ~4.40 and 4.92 and 4.82 and 5.35 and ~4.92
Compound: CNc1nc(Nc2ccc(-n3cnc(C)n3)c(OC(F)F)c2)nc2c1C(C)(C)CC2c1ccc(F)cc1 (single isomer, unassigned) [Enantiomer 1, N2-(3-(difluoromethoxy)-4-(3-methyl-1H-1,2,4-triazol-1-yl)phenyl)-7-(4-fluorophenyl)-N4,5,5-trimethyl-6,7-dihydro-5H-cyclopenta[d]pyrimidine-2,4-diamine]
pIC50 (dopamine receptor 1): 5.00 to 5.10
